Patent US20070093539A1, “N-hydroxy-4-(3-pheyl-5-methyl-isoxazole-4-yl)-benzenesulfonate solvates” (priority 2003, published 2007)

How the values were obtained:
[1] = system: carrageenan induced inflammatory hyperalgesia; assay: Carrageenan induced inflammatory hyperalgesia (Randall-Selitto), acute model; type: in vivo, male SPRD rats; conditions: Acut model, 10 mg/kg p.o.
Experimental: Edema was induced by injection of Carrageenan (CA) into plantar surface of right hind paw. Male SPRD rats (weighing 140-190 g) were used n=6-8/group). Then the mechanical pain threshold of the inflamed hind paw was determined with an analgesimeter ((Ugo Basile, type: 37215).
This assay monitors the decrease of the pain threshold, and the time depending changing of the pain by mechanical pain stimulus. Analgesics can increase the pain threshold of the inflamed hinds and this effect is in terms of percentage of reversal.
Untreated right hind paw was compressed with a progressively increasing pressure. The pressure was recorded (in grams) when the animal first vocalized or made a vigorous attempt to remove the paw. It was determined to baseline threshold of the untreated paw. (average: 80-110 g). After it the animals were treated with carrageenan. After the treatment the edema and the threshold were checked in a given times. […] (Average of inflammation induced pain threshold was 20-25 g, this means 65-80% decrease related to the baseline.)
1 hour after the CA injection (100 μl of 2% solution) the animals were treated with test compounds and valdecoxib (10-10 mg/kg p.o.). […]
The chronic phase of the inflammantion and the decreasing of the threshold were induced by higher dose of CA. Inflammation induced threshold decreasing was measured 24 hours after the CA injection (150 μl of 2% solution). ) After it the animals were treated with test compounds and valdecoxib (30-30 mg/kg p.o.). Change in the threshold was checked at 1 h, 2 h, and 3 h following drug administration. In both model used control groups were treated orally only with solvents at the time of treatments. In both protocol the effects of the test compounds were calculated in percentage reversal of mechanical hiperalgesia: [formula] • T3h: In acute model, the threshold in the control group at 3 h after the CA injection (in gram) • T24h: In chronic model, the threshold in the control group at 24 h after the CA injection (in gram) • T0h: The threshold before the CA injection (in gram) • TXh In acute model, at 3h after the CA injection • TXh=In chronic model, at 25 h, 26 h, 27 h after the CA injection

Human recombinant COX-2 = target: T1, Human recombinant COX-2 (Homo sapiens, UniProt P35354); assay: spectrophotometric TMPD assay, COX-2; type: biochemical; conditions: 15 min preincubation at 25° C., read-out: Human recombinant COX-2 IC50 (μM) ± S.E.M.
T1 construct: purchased Cayman Chemical, Ann Arbor, USA 60122
T1 sequence (P35354 18-604): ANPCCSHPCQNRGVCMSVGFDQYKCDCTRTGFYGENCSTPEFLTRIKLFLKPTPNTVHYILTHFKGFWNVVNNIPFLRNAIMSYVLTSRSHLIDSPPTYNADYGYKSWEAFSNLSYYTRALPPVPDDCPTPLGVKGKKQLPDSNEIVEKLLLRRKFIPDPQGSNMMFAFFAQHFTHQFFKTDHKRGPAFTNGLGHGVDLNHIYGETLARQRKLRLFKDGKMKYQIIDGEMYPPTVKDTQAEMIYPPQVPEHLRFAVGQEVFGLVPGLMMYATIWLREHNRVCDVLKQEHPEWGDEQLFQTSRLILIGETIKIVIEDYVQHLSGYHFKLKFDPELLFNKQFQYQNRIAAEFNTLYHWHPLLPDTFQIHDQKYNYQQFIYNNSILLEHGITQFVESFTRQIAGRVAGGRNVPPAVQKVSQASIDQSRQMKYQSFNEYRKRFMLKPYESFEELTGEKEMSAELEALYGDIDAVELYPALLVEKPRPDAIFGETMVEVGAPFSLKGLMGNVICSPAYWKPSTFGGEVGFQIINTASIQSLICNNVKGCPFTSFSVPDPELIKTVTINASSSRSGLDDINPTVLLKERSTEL
Experimental: The Human recombinant COX-2 and sheep COX-1 activity were determined by spectrophotometric TMPD assay (K. Gierse, S. D. Hauser, D. P. Creely, C. M. Koboldt, S. H. Rangwala, P. C. Isakson and K. Seibert: Expression and selective inhibition of the constitutive and inducible forms of human cyclo-oxygenase Biochem. J. 305: 479-484 (1995)).
The Human recombinant COX-2 and sheep COX-1 activity were measured by spectrophotometric assay based on oxidation of N,N,N′,N′,-tetramethyl-p-phenylenediamine (TMPD). During the reduction of the prostaglandine G2 (PGG2) to prostaglandine endoperoxid H2 (PGH2), the TMPD is being oxidated to a colour product, which can be measured by spectrophotometer at 610 nm.
4 μl of solution of inhibitors in different concentrations was added to the 156 μl of reaction mixture (100 mM sodium phosphate buffer, pH:6.5, 1 μM hematin, 1 mg/ml gelatine). Afterwards 20 μl solution of 50 unit human recombinant COX-2 enzym or 20 μl of 50 unit sheep COX-1 enzym (Cayman Chemical, Ann Arbor, USA, cat no.: 60122/COX-2/, cat. no.: 60100/COX-1/) was added. The incubation mixture: was preincubated for 15 minutes at 25° C. in a spectrophotometric 96-well plate reader (Labsystem iEMS Reader MF). Following this, the mixture of 20 μl 1 mM arachidonic acid and 1 mM TMPD solution were added. It was shaken for 10 second and the absorbance was measured at 610 nm.

[2] = system: inflammatory mechanical allodynia induced by carrageenan; assay: Carrageenan-induced inflammatory mechanical allodynia (von Frey); type: in vivo, male Sprague-Dawley rats; conditions: 30 mg/kg p.o.
Experimental: The-threshold of pain of the animals was measured by von Frey apparatus (IITC, type: 1601 C). […] The values were registered in the times of the pick up or raises. During each measurment the threshold was determined at least thrice and the avarage was calculated from the peak values.
Male Sprague-Dawley rats (weighing 250-300 g) were used (n=5-6/group). 100 μl of saline solution of carrageenant (CA) was injected to the middle of the paw. The stimulus threshold was measured after it, and the treatment was completed with gastro-probe per os. The effects of the materials were measured in 30, 60, 90, 120 minutes after the treatments. The effects were compared for control group treatment with vehicle (solution of 2% Tween-80).
The effect was calculated as follows: [formula] where tx=30, 60, 90, 120 min
In the acute pain model the analgesic effects of the valdecoxib and compound of example 1 were considerable with dose of 30 mg/kg p.o. once.

## N-hydroxi-4-(3-phenyl-5-methyl-isoxazole-4-yl)-benzenesulfonamide monohydrate [example 1]
[1]; 2 hours
  Analgesic effect in % after p.o. treatment: 64.6%
[1]; 3 hours
  Analgesic effect in % after p.o. treatment: 40.7%
[1]; 4 hours
  Analgesic effect in % after p.o. treatment: 12.3%
Human recombinant COX-2
  IC50: 1.1 ± 0.3 µM
[2]; 30 min.
  Analgesic effect in % after p.o. treatment: 61.6%
[2]; 1 hour
  Analgesic effect in % after p.o. treatment: 57.1%
[2]; 1.5 hour
  Analgesic effect in % after p.o. treatment: 44.5%
[2]; 2 hours
  Analgesic effect in % after p.o. treatment: 41.5%
